{"source": "patent US20170313932A1", "about": "“SYNTHETIC ACID COMPOSITIONS ALTERNATIVES TO CONVENTIONAL ACIDS IN THE OIL AND GAS INDUSTRY” (FLUID ENERGY GROUP LTD., priority 2014, published 2017)", "origin": "cited, not measured here", "test_system": "Life and Health"}
{"compound": "Cl", "note": "[Hydrogen chloride gas, Hydrogen chloride]", "values": [{"measurement": "Level Immediately Dangerous to Life and Health (IDHL)", "value": "above 50 PPM"}, {"measurement": "Level at which death can occur", "setting": "gas exposure, death in 2-3 minutes", "value": "1300-2000 parts per million (PPM)"}]}
